As usually defined, the pIC50 is −log10 of the IC50, conventionally taken in molar units.

Consider two compounds from ChEMBL document CHEMBL4808249, “Total synthesis and biological evaluation of 7-hydroxyneolamellarin A as hypoxia-inducible factor-1α inhibitor for cancer therapy” (Bioorg Med Chem Lett, 2021).

The target in series [1] is T1, Hypoxia-inducible factor 1-alpha (Homo sapiens, UniProt Q16665). Description: Inhibition of HIF-1alpha in human HeLa cells assessed as reduction in VEGF mRNA level incubated under hypoxia condition for 12 hrs by RT-PCR analysis. The settings on record: dose 25-100 µmol/L. In kind it is cell-based.
Target sequence in this assay (Q16665 whole entry, looked up): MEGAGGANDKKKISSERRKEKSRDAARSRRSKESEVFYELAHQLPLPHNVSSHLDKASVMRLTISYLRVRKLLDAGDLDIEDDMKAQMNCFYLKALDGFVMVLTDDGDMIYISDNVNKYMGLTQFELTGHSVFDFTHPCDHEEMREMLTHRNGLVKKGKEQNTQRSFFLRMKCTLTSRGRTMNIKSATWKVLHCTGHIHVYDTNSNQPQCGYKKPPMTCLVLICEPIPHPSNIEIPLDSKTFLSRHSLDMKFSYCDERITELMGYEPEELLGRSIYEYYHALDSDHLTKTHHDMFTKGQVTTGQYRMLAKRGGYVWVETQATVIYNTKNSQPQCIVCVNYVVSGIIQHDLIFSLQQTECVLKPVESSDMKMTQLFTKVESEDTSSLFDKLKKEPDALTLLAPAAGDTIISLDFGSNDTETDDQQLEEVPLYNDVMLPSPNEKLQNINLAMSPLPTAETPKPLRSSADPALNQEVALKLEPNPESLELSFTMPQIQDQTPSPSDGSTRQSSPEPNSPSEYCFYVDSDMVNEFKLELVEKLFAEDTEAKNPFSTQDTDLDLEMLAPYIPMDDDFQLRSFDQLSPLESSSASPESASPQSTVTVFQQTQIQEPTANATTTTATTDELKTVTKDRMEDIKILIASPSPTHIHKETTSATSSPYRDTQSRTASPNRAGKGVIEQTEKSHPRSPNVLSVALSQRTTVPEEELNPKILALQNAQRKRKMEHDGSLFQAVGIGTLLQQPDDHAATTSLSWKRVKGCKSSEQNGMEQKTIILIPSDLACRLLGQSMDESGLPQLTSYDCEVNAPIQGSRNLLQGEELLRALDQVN
The nature of series [2]: Toxicity in BALB/c mouse xenografted with mouse 4T1 cells assessed as effect on spleen morphology at 15 mg/kg, iv administered every 2 days starting from day 7 post-inoculation and measured on day 24 by Hematoxyin-eosin staining based analysis. It counts as organism-based. Conditions: in vivo, 432 h, time 18 day.
The test system of series [3] is 4T1. Description: Downregulation of HIF-1alpha expression in mouse 4T1 cells at 50 to 150 umol/L incubated under hypoxia condition for 4 hrs by Western blot analysis. It counts as functional, cell-based. Conditions: dose 50-150 µmol/L. In general terms: Immunoblotting shows a protein as a band on a membrane.
The nature of series [4]: Toxicity in BALB/c mouse xenografted with mouse 4T1 cells assessed as effect on liver morphology at 15 mg/kg, iv administered every 2 days starting from day 7 post-inoculation and measured on day 24 by Hematoxyin-eosin staining based analysis. It counts as organism-based. Conditions: in vivo, 432 h, time 18 day.
Series [5] has as its system HeLa. The series is described as follows: Downregulation of HIF-1 alpha expression in human HeLa cells assessed as half life of the protein at 150 umol/L incubated under CoCl2-stimulated hypoxia conditions for 4 hrs followed by incubation with compound and protein translation inhibitor, CHX under normoxia conditions for 240 mins by Western blot analysis (reference value: 33.4 mins). In kind it is functional, cell-based. Conditions: dose 150.0 µmol/L.

Series [6] relates to HeLa. Description: Downregulation of HIF-1beta expression in human HeLa cells at 50 to 150 umol/L incubated under hypoxia conditions for 4 hrs by western blot analysis. In kind it is functional, cell-based. The settings on record: dose 50-150 µmol/L.
The test system of series [7] is 4T1. The series is described as follows: Downregulation of HIF-1alpha protein expression in tumor tissue of BALB/c mouse xenografted with mouse 4T1 cells at 15 mg/kg, iv administered every 2 days starting from day 7 post-inoculation and measured on day 24 by immunofluorescence analysis. In kind it is functional, organism-based. Conditions: time 18.0 day.
The subject of series [8] is HeLa. The series is described as follows: Cytotoxicity against human HeLa cells assessed as cell viability at 6.3 to 150 umol/L incubated under hypoxia condition for 24 hrs by MTT assay. It counts as cell-based. Conditions: dose 6.3-150 µmol/L.
For series [9], the system named is HeLa. Description: Downregulation of HIF-1 alpha expression in human HeLa cells at 50 to 150 umol/L incubated under normoxia conditions for 4 hrs in presence of CoCl2 by Western blot analysis. The settings on record: dose 50-150 µmol/L. In kind it is functional, cell-based.
A further series concerns MCF7. The series is described as follows: Downregulation of HIF-1alpha expression in human MCF7 cells at 50 to 150 umol/L incubated under hypoxia condition for 4 hrs by Western blot analysis. Conditions: dose 50-150 µmol/L. In kind it is functional, cell-based.
Series [10] is described as follows: Toxicity in BALB/c mouse xenografted with mouse 4T1 cells assessed as effect on heart morphology at 15 mg/kg, iv administered every 2 days starting from day 7 post-inoculation and measured on day 24 by Hematoxyin-eosin staining based analysis. It counts as organism-based. The settings on record: in vivo, 432 h, time 18 day.
Series [11] deals with HeLa. Description: Cytotoxicity against human HeLa cells assessed as cell viability at 6.3 to 150 umol/L incubated under normoxic conditions for 24 hrs by MTT assay. It counts as cell-based. Conditions: dose 6.3-150 µmol/L. For orientation: Formazan colour is commonly taken as a measure of viable cells.
Series [12] deals with HeLa. The series is described as follows: Antiinvasive activity in human HeLa cells assessed as inhibition of cell invasion at 50 to 150 umol/L incubated under hypoxia condition for 36 hrs by transwell invasion assay. In kind it is functional, cell-based. Conditions: dose 50-150 µmol/L.
Series [13] has as its system HeLa. The series is described as follows: Downregulation of HIF-1 alpha expression in human HeLa cells at 50 to 150 umol/L incubated under hypoxia conditions for 4 hrs by Western blot analysis. In kind it is functional, cell-based. The settings on record: dose 50-150 µmol/L.
In series [14] the target is T1, Hypoxia-inducible factor 1-alpha. The series is described as follows: Inhibition of HIF-1alpha in human HeLa cells transfected with HRE-driven firefly luciferase gene pretreated with compound followed by incubation under normoxic condition for 1 hr followed by hypoxic condition for 12 hrs by dual luciferase reporter gene assay. It counts as cell-based. In general terms: Reporter assays use an easily measured gene product as a stand-in for the process of interest.

Series [15] relates to HeLa. The series is described as follows: Downregulation of HIF-1alpha expression in human HeLa cells at 50 to 150 umol/L incubated under hypoxia condition for 4 hrs by immunofluorescence analysis. Conditions: dose 50-150 µmol/L. In kind it is functional, cell-based.
Series [16] in a line: Toxicity in BALB/c mouse xenografted with mouse 4T1 cells assessed as effect on body weight at 15 mg/kg, iv administered every 2 days starting from day 7 post-inoculation and measured on day 24. The settings on record: in vivo, 432 h, time 18 day. In kind it is organism-based.
The test system of another series is HUVEC. The series is described as follows: Inhibition of angiogenesis in human HUVEC cells assessed as disruption of tube formation at 150 umol/L incubated under hypoxia condition for 6 hrs by Matrigel based analysis. In kind it is functional, cell-based. The settings on record: dose 150.0 µmol/L.
In series [17] the test system is 4T1. The series is described as follows: Antitumor activity against mouse 4T1 cells xenografted in BALB/c mouse assessed as tumor growth inhibition at 15 mg/kg, iv administered every 2 days starting from day 7 post-inoculation and measured on day 24. In kind it is functional, organism-based. The settings on record: time 18.0 day.
In series [18] the test system is HeLa. The series is described as follows: Inhibition of colony formation in human HeLa cells incubated under hypoxia condition for 10 days. It counts as functional, cell-based. Conditions: dose 5-50 µmol/L, time 10.0 day.
In series [19] the test system is HeLa. The series is described as follows: Downregulation of HIF-1 alpha expression in human HeLa cells at 100 to 150 umol/L incubated under hypoxia conditions for 4 hrs in presence of proteasome inhibitor, MG132 by Western blot analysis. In kind it is functional, cell-based. Conditions: dose 100-150 µmol/L.
A short description of series [20]: Toxicity in BALB/c mouse xenografted with mouse 4T1 cells assessed as effect on kidney morphology at 15 mg/kg, iv administered every 2 days starting from day 7 post-inoculation and measured on day 24 by Hematoxyin-eosin staining based analysis. In kind it is organism-based. The settings on record: in vivo, 432 h, time 18 day.
The subject of series [21] is HeLa. The series is described as follows: Inhibition of cell migration in human HeLa cells at 10 to 50 umol/L incubated under hypoxia condition for 36 hrs by wound healing assay. In kind it is functional, cell-based. Conditions: dose 10-50 µmol/L.
Series [22] is described as follows: Toxicity in BALB/c mouse xenografted with mouse 4T1 cells assessed as effect on liver morphology at 15 mg/kg, ip administered every 2 days starting from day 7 post-inoculation and measured on day 24 by Hematoxyin-eosin staining based analysis. It counts as organism-based. Conditions: in vivo, 432 h, time 18 day.
Series [23] in a line: Toxicity in BALB/c mouse xenografted with mouse 4T1 cells assessed as effect on body weight at 15 mg/kg, ip administered every 2 days starting from day 7 post-inoculation and measured on day 24. It counts as organism-based. The settings on record: in vivo, 432 h, time 18 day.
Series [24] can be described thus: Toxicity in BALB/c mouse xenografted with mouse 4T1 cells assessed as effect on kidney morphology at 15 mg/kg, ip administered every 2 days starting from day 7 post-inoculation and measured on day 24 by Hematoxyin-eosin staining based analysis. In kind it is organism-based. Conditions: in vivo, 432 h, time 18 day.
The nature of series [25]: Toxicity in BALB/c mouse xenografted with mouse 4T1 cells assessed as effect on spleen morphology at 15 mg/kg, ip administered every 2 days starting from day 7 post-inoculation and measured on day 24 by Hematoxyin-eosin staining based analysis. The settings on record: in vivo, 432 h, time 18 day. It counts as organism-based.
The test system of series [26] is 4T1. Description: Antitumor activity against mouse 4T1 cells xenografted in BALB/c mouse assessed as tumor growth inhibition at 15 mg/kg, ip administered every 2 days starting from day 7 post-inoculation and measured on day 24. Conditions: time 18.0 day. It counts as functional, organism-based.
Series [27] can be described thus: Toxicity in BALB/c mouse xenografted with mouse 4T1 cells assessed as effect on heart morphology at 15 mg/kg, ip administered every 2 days starting from day 7 post-inoculation and measured on day 24 by Hematoxyin-eosin staining based analysis. Conditions: in vivo, 432 h, time 18 day. It counts as organism-based.

pIC50: −log10 of the molar value. The source made the active and inactive calls. No cut-off for these calls is given here.

As to `O=C(C(O)c1ccc(O)cc1)n1cc(-c2ccc(O)cc2)c(-c2ccc(O)cc2)c1` (stereo not given) [7-(R/S)-HYDROXYLAMELLARIN A], the inhibition result (in series [1]; in series [14] (time 13.0 hrs); with HeLa [18]) was “Dose-Dependent Effect” in each case. The Activity result (in series [2]; in series [4]; with HeLa [8]; in series [10]; in the series on HeLa [11]; in [16]) was “Non-Toxic” in each case. Besides, the Activity result in series [20] is “Non-Toxic”. In addition, the inhibition result in the series on 4T1 [3], in the series with 4T1 [7], with HeLa [9], in the series on MCF7, in the series with HeLa [13] and in the series with HeLa [15] was “Active” each time. For the same compound, the inhibition entry in the series on HUVEC, in the series with HeLa [19] and in the series on HeLa [21] was “Active” throughout. In addition, in the series on HeLa [5], the T1/2 was 10.4 min. For the same compound, the inhibition result in the series on HeLa [6] was “inactive”. Besides, the outcome in the series on HeLa [12] and with 4T1 [17] was Active. Besides, the pIC50 in series [14] was 4.64.
Take `C=CCNC1=C2C[C@@H](C)C[C@H](OC)[C@H](O)[C@@H](C)/C=C(\C)[C@H](OC(N)=O)[C@@H](OC)/C=C\C=C(/C)C(=O)NC(=CC1=O)C2=O` (stereo in doubt) [TANESPIMYCIN]: the Activity result in series [22], in series [23], in [24], in [25] and in series [27] was “Non-Toxic” in each case. Moreover, the outcome in the series with 4T1 [26] was Active.
